Data taken from US20240269139A1, “COMPOUNDS FOR TARGETED PROTEIN DEGRADATION OF KINASES” (DANA-FARBER CANCER INSTITUTE, INC., priority 2020, published 2024).
Where two headings read alike, the source gives them in different places.

Columns and labels:
[1] = target: T1, protein kinases (human kinome) (Homo sapiens, UniProt Q9UIG0); assay type: cell-based; details: BAZ1B (Q9UIG0)
T1 sequence (Q9UIG0 1-1483): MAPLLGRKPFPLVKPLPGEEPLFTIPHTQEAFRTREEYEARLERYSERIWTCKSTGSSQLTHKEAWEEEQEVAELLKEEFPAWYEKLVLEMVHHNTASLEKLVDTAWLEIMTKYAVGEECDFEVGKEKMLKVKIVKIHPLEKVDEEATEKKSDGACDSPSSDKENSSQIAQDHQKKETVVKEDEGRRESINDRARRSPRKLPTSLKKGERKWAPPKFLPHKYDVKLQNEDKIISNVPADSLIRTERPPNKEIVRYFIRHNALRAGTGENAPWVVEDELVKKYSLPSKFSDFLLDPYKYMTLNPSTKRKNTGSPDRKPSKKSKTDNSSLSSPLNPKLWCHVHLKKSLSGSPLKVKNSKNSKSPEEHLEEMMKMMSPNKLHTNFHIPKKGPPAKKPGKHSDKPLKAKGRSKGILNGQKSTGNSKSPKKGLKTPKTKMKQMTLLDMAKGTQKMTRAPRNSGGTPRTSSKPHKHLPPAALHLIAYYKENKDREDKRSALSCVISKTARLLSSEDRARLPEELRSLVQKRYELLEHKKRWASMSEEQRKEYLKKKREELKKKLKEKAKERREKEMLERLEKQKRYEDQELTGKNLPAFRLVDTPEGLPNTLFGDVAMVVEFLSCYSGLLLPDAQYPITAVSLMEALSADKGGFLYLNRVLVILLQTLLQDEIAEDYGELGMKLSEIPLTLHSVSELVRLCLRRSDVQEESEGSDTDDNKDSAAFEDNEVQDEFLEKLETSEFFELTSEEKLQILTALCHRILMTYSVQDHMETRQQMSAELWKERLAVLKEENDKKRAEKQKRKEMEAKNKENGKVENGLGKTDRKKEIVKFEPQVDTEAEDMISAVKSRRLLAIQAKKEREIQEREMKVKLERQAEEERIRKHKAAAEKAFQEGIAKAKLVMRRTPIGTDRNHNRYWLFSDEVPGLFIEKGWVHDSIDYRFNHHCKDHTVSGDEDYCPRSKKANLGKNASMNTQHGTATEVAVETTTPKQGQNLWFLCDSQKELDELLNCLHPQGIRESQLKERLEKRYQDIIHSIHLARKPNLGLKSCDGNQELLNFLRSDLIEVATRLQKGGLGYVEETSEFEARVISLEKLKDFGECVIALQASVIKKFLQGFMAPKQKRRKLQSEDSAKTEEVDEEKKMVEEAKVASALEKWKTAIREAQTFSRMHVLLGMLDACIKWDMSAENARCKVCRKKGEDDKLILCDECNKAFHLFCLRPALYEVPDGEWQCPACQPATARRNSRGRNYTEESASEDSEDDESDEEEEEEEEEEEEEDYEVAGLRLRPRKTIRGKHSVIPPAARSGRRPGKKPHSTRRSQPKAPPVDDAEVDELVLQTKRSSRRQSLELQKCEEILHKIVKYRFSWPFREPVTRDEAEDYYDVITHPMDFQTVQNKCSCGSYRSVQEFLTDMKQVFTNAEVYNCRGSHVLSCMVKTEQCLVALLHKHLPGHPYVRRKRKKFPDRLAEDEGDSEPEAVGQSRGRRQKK

[2] = target: T2, protein kinases (human kinome) (Homo sapiens, UniProt O00444); assay type: cell-based
T2 sequence (O00444 1-970): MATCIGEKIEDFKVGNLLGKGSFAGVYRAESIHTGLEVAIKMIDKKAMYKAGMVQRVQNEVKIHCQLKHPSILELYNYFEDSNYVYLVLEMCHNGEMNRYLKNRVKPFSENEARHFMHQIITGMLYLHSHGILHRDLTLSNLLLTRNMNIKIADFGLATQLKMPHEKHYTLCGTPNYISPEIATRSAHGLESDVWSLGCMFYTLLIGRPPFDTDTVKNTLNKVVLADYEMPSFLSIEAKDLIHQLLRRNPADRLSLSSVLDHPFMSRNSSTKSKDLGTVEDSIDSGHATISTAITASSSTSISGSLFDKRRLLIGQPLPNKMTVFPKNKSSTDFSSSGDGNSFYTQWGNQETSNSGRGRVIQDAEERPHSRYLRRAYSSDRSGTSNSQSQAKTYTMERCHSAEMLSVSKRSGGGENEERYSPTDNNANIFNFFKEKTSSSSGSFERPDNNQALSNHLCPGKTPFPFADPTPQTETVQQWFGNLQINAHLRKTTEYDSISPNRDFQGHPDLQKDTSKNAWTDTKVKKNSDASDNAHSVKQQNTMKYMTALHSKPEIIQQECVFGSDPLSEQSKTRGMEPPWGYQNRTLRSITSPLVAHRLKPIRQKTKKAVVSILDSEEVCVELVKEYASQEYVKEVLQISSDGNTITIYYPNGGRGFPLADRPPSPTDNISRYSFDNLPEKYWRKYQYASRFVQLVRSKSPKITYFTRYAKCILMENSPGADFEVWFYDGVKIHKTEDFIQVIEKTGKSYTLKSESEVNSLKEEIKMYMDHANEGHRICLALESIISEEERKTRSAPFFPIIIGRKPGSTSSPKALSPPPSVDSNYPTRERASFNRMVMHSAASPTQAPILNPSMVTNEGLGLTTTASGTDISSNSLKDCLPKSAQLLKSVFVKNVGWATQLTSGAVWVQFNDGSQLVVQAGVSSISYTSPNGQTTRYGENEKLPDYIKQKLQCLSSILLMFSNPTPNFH

[3] = Accession O00444, experiment wp131, direction down
[4] = Accession O00444, experiment wp137, direction down
[5] = PLK4 (O00444), experiment wp137

Question: How did the logFC ([1]; experiment wp084) turn out when `CC(=O)c1c(C)c2cnc(Nc3ccc(N4CCN(CCOCCOCCOCCNC(=O)COc5cccc6c5C(=O)N(C5CCC(=O)NC5=O)C6=O)CC4)cn3)nc2n(C2CCCC2)c1=O` (stereo not shown) [BSJ.03.123] was run?
Answer: −0.3532

Question: `CN(C)C(=O)c1cc2cnc(Nc3ccc(N4CCN(CCCCNC(=O)COc5cccc6c5C(=O)N(C5CCC(=O)NC5=O)C6=O)CC4)cn3)nc2n1C1CCCC1` (stereo not shown) [BSJ.04.132] was tested. Which logFC ([1]; experiment wp084) did it give?
Answer: −0.3222

Question: Which results are given for `CS(=O)(=O)Nc1cccc(-c2csc3cnc(Nc4ccc(N5CCN(CCCCCOc6cccc7c6C(=O)N(C6CCC(=O)NC6=O)C7=O)CC5)cc4)nc23)c1` (stereo not shown) [DB0614, N-(3-(2-((4-(4-(5-((2-(2,6-Dioxopiperidin-3-yl)-1,3-dioxoisoindolin-4-yl)oxy)pentyl)piperazin-1-yl)phenyl)amino)thieno[3,2-d]pyrimidin-7-yl)phenyl)methanesulfonamide]?
Answer: logFC PLK4 ([2]; Accession O00444, experiment wp117, direction down): −0.5414; logFC PLK4 (O00444) ([2]; experiment wp117): −0.5414

Question: For `CC(C)(C)c1nc(-c2cccc(NS(=O)(=O)c3c(F)cccc3F)c2F)c(-c2ccnc(NCCOCCNC(=O)CCOCCOCCNc3cccc4c3CN(C3CCC(=O)NC3=O)C4=O)n2)s1` (stereo not shown) [DD.03.107], which logFC ([1]; experiment wp147, 4 uM) is on record?
Answer: −0.3418

Question: With `Cc1ncsc1-c1ccc([C@H](C)NC(=O)[C@@H]2C[C@@H](O)CN2C(=O)[C@@H](NC(=O)CCOCCOCCN2CCN(c3ccc(Nc4ncc(Cl)c(Nc5ccccc5S(=O)(=O)C(C)C)n4)cc3)CC2)C(C)(C)C)cc1` [FMF.06.098.1] as the compound, how does the “logFC PLK4” value [2, 3] read?
Answer: −0.7435

Question: What about the “logFC PLK4 (O00444)” value ([2]; experiment wp131) of the same compound?
Answer: −0.7435

Question: With `Cc1ncsc1-c1ccc([C@H](C)NC(=O)[C@@H]2C[C@@H](O)CN2C(=O)[C@@H](NC(=O)CCCCCN2CCN(c3ccc(Nc4ncc5scc(-c6cccc(NS(C)(=O)=O)c6)c5n4)cc3)CC2)C(C)(C)C)cc1` [RSS0680, (2S,4R)-1-((S)-3,3-Dimethyl-2-(6-(4-(4-((7-(3-(methylsulfonamido)phenyl)thieno[3,2-d]pyrimidin-2-yl)amino)phenyl)piperazin-1-yl)hexanamido)butanoyl)-4-hydroxy-N—((S)-1-(4-(4-methylthiazol-5yl)phenyl)ethyl)pyrrolidine-2-carboxamide] as the compound, how does the logFC ([1]; experiment wp080) read?
Answer: −0.4061

Question: What does the source list for `CC(C)S(=O)(=O)c1ccccc1Nc1nc(Nc2ccc(N3CCN(CCOCCNC(=O)CNc4cccc5c4C(=O)N(C4CCC(=O)NC4=O)C5=O)CC3)cc2)ncc1Cl` (stereo not shown) [SK.3.91]?
Answer: logFC PLK4 ([2]; Accession O00444, experiment wp103, direction down): −1.243; logFC PLK4 ([2]; Accession O00444, experiment wp107, direction down): −1.036; logFC PLK4 ([2]; Accession O00444, experiment wp133, 1 hr, direction down): −0.726; logFC PLK4 ([2]; Accession O00444, experiment wp133, 2 hr, direction down): −1.523; logFC PLK4 ([2]; Accession O00444, experiment wp133, 4 hr, direction down): −2.258; logFC PLK4 ([2]; Accession O00444, experiment wp160, 2 hr, direction down): −0.9266; logFC PLK4 ([2]; Accession O00444, experiment wp160, 4 hr, direction down): −1.169; logFC PLK4 ([2]; PLK4 (O00444), experiment wp133, 1 hr): −0.726; logFC PLK4 ([2]; PLK4 (O00444), experiment wp133, 2 hr): −1.523; logFC PLK4 ([2]; PLK4 (O00444), experiment wp133, 4 hr): −2.258; logFC PLK4 ([2]; PLK4 (O00444), experiment wp160, 2 hr): −0.9266; logFC PLK4 ([2]; PLK4 (O00444), experiment wp160, 4 hr): −1.169; logFC PLK4 (O00444) ([2]; experiment wp103): −1.243; logFC PLK4 (O00444) ([2]; experiment wp107): −1.036

Question: Which “logFC PLK4” value [2, 3] does the source give for `CC(C)S(=O)(=O)c1ccccc1Nc1nc(Nc2ccc(N3CCN(CCOCCOCCNC(=O)CNc4cccc5c4C(=O)N(C4CCC(=O)NC4=O)C5=O)CC3)cc2)ncc1Cl` (stereo not shown) [TL12.186] here?
Answer: −1.559

Question: And the “logFC PLK4” value [2, 4]?
Answer: −1.159

Question: What about the “logFC PLK4” value [2, 5] of the same compound?
Answer: −1.159

Question: And the “logFC PLK4 (O00444)” value ([2]; experiment wp131)?
Answer: −1.559

Question: Which results are given for `CC(C)S(=O)(=O)c1ccccc1Nc1nc(Nc2ccc(N3CCN(CCOCCOCCC(=O)NCCNc4cccc5c4CN(C4CCC(=O)NC4=O)C5=O)CC3)cc2)ncc1Cl` (stereo not shown) [TL13.97]?
Answer: logFC PLK4 [2, 4]: −1.049; logFC PLK4 [2, 5]: −1.049
